In US6828315B1, “1-Amino triazoloc4,3-a! quinazoline-5-ones and/or -5-thiones inhibiting phosphodiesterase IV” (Warner-Lambert LLC, priority 1999, dated 2004):

| SMILES | melting point [°C] |
| --- | --- |
| Cc1ccc2c(c1)c(=O)nc1n(CC=Cc3ccccc3)nc(N3CCCCCC3)n21 [Compound 157, 1-(azepan-1-yl)-7-methyl-3-(3-phenylallyl)-3H-[1,2,4]triazolo[4,3-a]quinazolin-5-one] | 193 |
| Cc1ccc2c(c1)c(=O)nc1n(CC=Cc3ccccc3)nc(N3CCCC3)n21 [Compound 158, 7-methyl-3-(3-phenylallyl)-1-(pyrrolidin-1-yl)-3H-[1,2,4]triazolo[4,3-a]quinazolin-5-one] | 225 |
| O=c1nc2n(CC=Cc3ccccc3)nc(N3CCCC3)n2c2ccc(O)cc12 [Compound 161, 7-hydroxy-3-(3-phenylallyl)-1-(pyrrolidin-1-yl)-3H-[1,2,4]triazolo[4,3-a]quinazolin-5-one] | 255 |
| CCCCN(CCCC)c1nnc2n(C)c(=O)c3cc(Cl)ccc3n12 [Compound 167, 7-chloro-1-dibutylamino-4-methyl-4H-[1,2,4]triazolo[4,3-a]-quinazolin-5-one] | 112 |
| Cn1c(=O)c2cc(Cl)ccc2n2c(N3CCCCC3)nnc12 [Compound 168, 7-chloro-4-methyl-1-(piperidin-1-yl)4H-[1,2,4]triazolo[4,3-a]-quinazolin-5-one] | 192 |
| CN1CCN(c2nnc3n(C)c(=O)c4cc(Cl)ccc4n23)CC1 [Compound 169, 7-Chloro-4-methyl-1-(4-methyl-piperazin-1-yl)-4H-[1,2,4]triazolo[4,3-a]quinazolin-5-one] | 180 to 182 |
| Cn1c(=O)c2cc(Cl)ccc2n2c(N3CC4CCC(C)(C3)C4(C)C)nnc12 (centres unmarked) [Compound 170, 7-Chloro-4-methyl-1-(1,8,8-trimethyl-3-aza-bicyclo[3.2.1]oct-3-yl)-4H-[1,2,4]triazolo[4,3-a]quinazolin-5-one] | 185 |
| O=c1c2cc(Cl)ccc2n2c(N3CCCCCC3)nnc2n1Cc1ccccc1 [Compound 172, 1-(azepan-1-yl)-4-benzyl-7-chloro-4H-[1,2,4]triazolo[4,3-a]-quinazolin-5-one] | 162 |
| O=c1c2cc(Cl)ccc2n2c(N3CCCC3)nnc2n1Cc1ccccc1 [Compound 173, 4-benzyl-7chloro-1-(pyrrolidin-1-yl)-4H-[1,2,4]triazolo[4,3-a]-quinazolin-5-one] | 163 |
| O=c1c2cc(Cl)ccc2n2c(N3CCCCC3)nnc2n1Cc1ccccc1 [Compound 174, 4-benzyl-7-chloro-1-(piperidin-1-yl)-4H-[1,2,4]triazolo[4,3-a]-quinazolin-5-one] | 178 |
| Cn1c(=O)c2ccc(Cl)cc2n2c(N3CCCCCC3)nnc12 [Compound 175, 1-(azepan-1-yl)-8-chloro-4-methyl-4H-[1,2,4]triazolo[4,3-a]-quinazolin-5-one] | 179 |
| Cn1c(=O)c2cc(Br)ccc2n2c(N3CCCCCC3)nnc12 [Compound 177, 1-(azepan-1-yl)-7-bromo-4-methyl-4H-[1,2,4]triazolo[4,3-a]-quinazolin-5-one] | 174 |
| O=c1c2cc(Br)ccc2n2c(N3CCCCC3)nnc2n1Cc1ccccc1 [Compound 178, 4-benzyl-7-bromo-1-(piperidin-1-yl)-4H-[1,2,4]triazolo[4,3-a]-quinazolin-5-one] | 183 to 185 |
| CN(C)c1nnc2n(Cc3ccccc3)c(=O)c3cc(Br)ccc3n12 [Compound 179, 4-Benzyl-7-bromo-1-dimethylamino-4H-[1,2,4]triazolo[4,3-a]quinazolin-5-one] | 171 |
| O=c1c2cc(Br)ccc2n2c(N3CCOCC3)nnc2n1Cc1ccccc1 [Compound 180, 4-Benzyl-7-bromo-1-morpholin-4-yl-4H-[1,2,4]triazolo[4,3-a]quinazolin-5-one] | 189 |
| O=c1c2cc(Br)ccc2n2c(N3CCSCC3)nnc2n1Cc1ccccc1 [Compound 181, 4-Benzyl-7-bromo-1-thiomorpholin-4-yl-4H-[1,2,4]triazolo[4,3-a]quinazolin-5-one] | 235 |
| CN1CCN(c2nnc3n(Cc4ccccc4)c(=O)c4cc(Br)ccc4n23)CC1 [Compound 182, 4-Benzyl-7-bromo-1-(4-methyl-piperazin-1-yl)-4H-[1,2,4]triazolo[4,3-a]quinazolin-5-one] | 230 |
| O=c1c2cc(Br)ccc2n2c(N3CCN(c4ccccc4)CC3)nnc2n1Cc1ccccc1 [Compound 183, 4-Benzyl-7-bromo-1-(4-phenyl-piperazin-1-yl)-4H-[1,2,4]triazolo[4,3-a]quinazolin-5-one] | 238 |
| O=c1c2cc(Br)ccc2n2c(N3CC=CCC3)nnc2n1Cc1ccccc1 [Compound 185, 4-Benzyl-7-bromo-1-(3,6-dihydro-2H-pyridin-1-yl)-4H-[1,2,4]triazolo[4,3-a]quinazolin-5-one] | 172 |
| O=c1c2cc(Br)ccc2n2c(N3CC=CC3)nnc2n1Cc1ccccc1 [Compound 186, 4-Benzyl-7-bromo-1-(2,5-dihydro-pyrrol-1-yl)-4H-[1,2,4]triazolo[4,3-a]quinazolin-5-one] | 210 |
| O=c1c2cc(Br)ccc2n2c(N3CCC(O)C3)nnc2n1Cc1ccccc1 (centres unmarked) [Compound 187, 4-Benzyl-7-bromo-1-(3-hydroxy-pyrrolidin-1-yl)-4H-[1,2,4]triazolo[4,3-a]quinazolin-5-one] | 176 |

| SMILES | melting point [°C] |
| --- | --- |
| CNc1nnc2n(Cc3ccccc3)c(=O)c3cc(Br)ccc3n12 [Compound 188, 4-Benzyl-7-bromo-1-methylamino-4H-[1,2,4]triazolo[4,3-a]quinazolin-5-one] | 238 |
| Cc1ccc2c(c1)c(=O)n(Cc1ccccc1)c1nnc(N3CCCC3)n21 [Compound 191, 4-Benzyl-7-methyl-1-pyrrolidin-1-yl-4H-[1,2,4]triazolo[4,3-a]quinazolin-5-one] | 189 |
| Cc1ccc2c(c1)c(=O)n(Cc1ccccc1)c1nnc(N(C)C)n21 [Compound 192, 4-Benzyl-1-dimethylamino-7-methyl-4H-[1,2,4]triazolo[4,3-a]quinazolin-5-one] | 186 |
| Cc1ccc2c(c1)c(=O)n(Cc1ccccc1)c1nnc(N3CCSCC3)n21 [Compound 193, 4-Benzyl-7-methyl-1-thiomorpholin-4-yl-4H-[1,2,4]triazolo[4,3-a]quinazolin-5-one] | 265 |
| Cc1ccc2c(=O)n(Cc3ccccc3)c3nnc(N4CCCCCC4)n3c2c1 [Compound 194, 1-Azepan-1-yl-4-benzyl-8-methyl-4H-[1,2,4]triazolo[4,3-a]quinazolin-5-one] | 202 |
| COc1ccc2c(c1)c(=O)n(Cc1ccccc1)c1nnc(N3CCCCCC3)n21 [Compound 195, 1-Azepan-1-yl-4-benzyl-7-methoxy-4H-[1,2,4]triazolo[4,3-a]quinazolin-5-one] | 153 |
| COc1ccc2c(c1)c(=O)n(Cc1ccccc1)c1nnc(N3CCCC3)n21 [Compound 196, 4-Benzyl-7-methoxy-1-pyrrolidin-1-yl-4H-[1,2,4]triazolo[4,3-a]quinazolin-5-one] | 154 |
| N#Cc1ccc2c(c1)c(=O)n(Cc1ccccc1)c1nnc(N3CCCC3)n21 [Compound 197, 4-Benzyl-5-oxo-1-pyrrolidin-1-yl-4,5-dihydro-[1,2,4]triazolo[4,3-a]quinazoline-7-carbonitrile] | 219 |
| O=c1c2cc([N+](=O)[O-])ccc2n2c(N3CCCCCC3)nnc2n1Cc1ccccc1 [Compound 198, 1-Azepan-1-yl-4-benzyl-7-nitro-4H-[1,2,4]triazolo[4,3-a]quinazolin-5-one] | 206 |
| Cn1c(=O)c2ccccc2n2c(N3CCCCCC3)nnc12 [Compound 200, 1-(azepan-1-yl)-4-methyl-4H-[1,2,4]triazolo[4,3-a]quinazolin-5-one] | 199 to 203 |
| O=c1c2ccccc2n2c(N3CCCCCC3)nnc2n1Cc1ccccc1 [Compound 201, 1-(azepan-1-yl)-4-benzyl-4H-[1,2,4]triazolo[4,3-a]quinazolin-5-one] | 157 |
| Cn1c(=O)c2c(Cl)cccc2n2c(N3CCCCCC3)nnc12 [Compound 202, 1-(azepan-1-yl)-6-chloro-4-methyl-4H-[1,2,4]triazolo[4,3-a]-quinazolin-5-one] | > 275 |
| Cn1c(=O)c2cc(Cl)ccc2n2c(N3CCCCCC3)nnc12 [Compound 203, 1-(azepan-1-yl)-7-chloro-4-methyl-4H-[1,2,4]triazolo[4,3-a]-quinazolin-5-one] | 145 |
| CCn1c(=O)c2cc(Cl)ccc2n2c(N3CCCCCC3)nnc12 [Compound 204, 1-(azepan-1-yl)-7-chloro-4-ethyl-4H-[1,2,4]triazolo[4,3-a]-quinazolin-5-one] | 98 to 100 |
| Cn1c(=O)c2cc(Cl)ccc2n2c(N3CCCC3)nnc12 [Compound 205, 7-chloro-4-methyl-1-(pyrrolidin-1-yl)-4H-[1,2,4]triazolo[4,3-a]-quinazolin-5-one] | 203 to 205 |
| Cn1c(=O)c2cc(Cl)ccc2n2c(N3CCOCC3)nnc12 [Compound 206, 7-chloro-4-methyl-1-(morpholin-4-yl)-4H-[1,2,4]triazolo[4,3-a]-quinazolin-5-one] | 232 |
| Cn1c(=O)c2cc(Cl)ccc2n2c(N3CCCCCCC3)nnc12 [Compound 207, 1-(azocan-1-yl)-7-chloro-4methyl-4H-[1,2,4]triazolo[4,3-a]-quinazolin-5-one] | 123 to 125 |
| Cn1c(=O)c2cc(Cl)ccc2n2c(N3CCCc4ccccc43)nnc12 [Compound 208, 7-chloro-1-(3,4-dihydro-2H-quinolin-1-yl)-4-methyl-4H-[1,2,4]triazolo[4,3-a]quinazolin-5-one] | 204 |
| Cn1c(=O)c2cc(Cl)ccc2n2c(N3CCc4ccccc4C3)nnc12 [Compound 209, 7-chloro-1-(3,4-dihydro-1H-isoquinolin-2-yl)-4-methyl-4H-[1,2,4]triazolo[4,3-a]quinazolin-5-one] | 272 |
| Cn1c(=O)c2cc(Cl)ccc2n2c(N3CCC(Cc4ccccc4)CC3)nnc12 [Compound 210, 1-(4-benzylpiperidin-1-yl)-7chloro-4-methyl-4H-[1,2,4]triazolo[4,3-a]quinazolin-5-one] | 180 |
